Assay results published in PubChem BioAssay (NCI).
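How tested: cells in 96-well plates exposed to compound for 48 hours at five concentrations. TGI denotes the concentration required for complete inhibition of growth.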

Columns and labels:
Experiment in all cases: NCI tumour cell line growth inhibition, 48 h
OVCAR-3 ovarian = system: OVCAR-3 ovarian
K-562 leukemia = system: K-562 leukemia
UO-31 renal = system: UO-31 renal
CCRF-CEM leukemia = system: CCRF-CEM leukemia
OVCAR-5 ovarian = system: OVCAR-5 ovarian
MOLT-4 leukemia = system: MOLT-4 leukemia
A498 renal = system: A498 renal
RXF-631 renal = system: RXF-631 renal
SNB-78 CNS = system: SNB-78 CNS
SK-MEL-28 melanoma = system: SK-MEL-28 melanoma
OVCAR-4 ovarian = system: OVCAR-4 ovarian
M19-MEL melanoma = system: M19-MEL melanoma
DLD-1 colon = system: DLD-1 colon
CAKI-1 renal = system: CAKI-1 renal
SF-268 CNS = system: SF-268 CNS
XF 498 CNS = system: XF 498 CNS
HL-60(TB) leukemia = system: HL-60(TB) leukemia
SK-OV-3 ovarian = system: SK-OV-3 ovarian
786-0 renal = system: 786-0 renal
UACC-62 melanoma = system: UACC-62 melanoma
SNB-19 CNS = system: SNB-19 CNS
HOP-62 NSCLC = system: HOP-62 NSCLC
SK-MEL-5 melanoma = system: SK-MEL-5 melanoma
EKVX NSCLC = system: EKVX NSCLC
IGROV1 ovarian = system: IGROV1 ovarian
MALME-3M melanoma = system: MALME-3M melanoma
RXF 393 renal = system: RXF 393 renal
LXFL 529 NSCLC = system: LXFL 529 NSCLC
NCI-H23 lung = system: NCI-H23 lung
RPMI-8226 leukemia = system: RPMI-8226 leukemia
NCI-H460 lung = system: NCI-H460 lung
HT29 colon = system: HT29 colon
ACHN renal = system: ACHN renal
NCI-H226 lung = system: NCI-H226 lung
HOP-92 NSCLC = system: HOP-92 NSCLC
HCT-15 colon = system: HCT-15 colon
SN12C renal = system: SN12C renal
DMS 114 small cell lung = system: DMS 114 small cell lung
U251 CNS = system: U251 CNS
SF-295 CNS = system: SF-295 CNS
A549 NSCLC = system: A549 NSCLC
SF-539 CNS = system: SF-539 CNS
COLO 205 colon = system: COLO 205 colon
M14 melanoma = system: M14 melanoma
TK-10 renal = system: TK-10 renal
KM20L2 colon = system: KM20L2 colon
SW-620 colon = system: SW-620 colon
OVCAR-8 ovarian = system: OVCAR-8 ovarian
HCC-2998 colon = system: HCC-2998 colon
UACC-257 melanoma = system: UACC-257 melanoma
HOP-18 NSCLC = system: HOP-18 NSCLC

Measured: TGI

COC(=O)C12C3C4C1C1C2C3C41I (stereo unspecified)
> 100 µM: all assays above
